Assay results: ChEMBL document CHEMBL1201862, “PubChem BioAssay data set” (2004)
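Values below derive from 48-hour exposures of cells grown in 96-well plates, with endpoints linearly interpolated between the two concentrations bracketing the appropriate inhibition level. GI50: concentration for 50% inhibition of growth.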 Calls of active or inactive are those of the source. Cut-off read from the data, not from the text of the source: active = GI50 up to about 1.1 µM and inactive = higher.

Experiments:
Assay in all cases: inhibition of tumour cell growth, NCI panel, 48 h
MDA-N = test system: MDA-N
Malme-3M = test system: Malme-3M
HOP-62 = test system: HOP-62
RXF 393 = test system: RXF 393
HL-60 = test system: HL-60
HCT-15 = test system: HCT-15
MOLT-4 = test system: MOLT-4
SF-295 = test system: SF-295
K562 = test system: K562
TK-10 = test system: TK-10
M14 = test system: M14
SN12C = test system: SN12C
RPMI-8226 = test system: RPMI-8226
SNB-75 = test system: SNB-75
SK-MEL-2 = test system: SK-MEL-2
SNB-19 = test system: SNB-19
COLO 205 = test system: COLO 205
UACC-257 = test system: UACC-257
CAKI-1 = test system: CAKI-1
BT-549 = test system: BT-549
UACC-62 = test system: UACC-62
A498 = test system: A498
786-0 = test system: 786-0
LOX IMVI = test system: LOX IMVI
NCI-H522 = test system: NCI-H522
IGROV-1 = test system: IGROV-1
OVCAR-3 = test system: OVCAR-3
SF-268 = test system: SF-268
ACHN = test system: ACHN
SR = test system: SR
OVCAR-8 = test system: OVCAR-8
KM12 = test system: KM12
OVCAR-5 = test system: OVCAR-5
SK-MEL-28 = test system: SK-MEL-28
SW-620 = test system: SW-620
MCF7 = test system: MCF7
OVCAR-4 = test system: OVCAR-4
NCI/ADR-RES = test system: NCI/ADR-RES
NCI-H23 = test system: NCI-H23
UO-31 = test system: UO-31
HCC 2998 = test system: HCC 2998
PC-3 = test system: PC-3
NCI-H460 = test system: NCI-H460
MDA-MB-231 = test system: MDA-MB-231
A549 = test system: A549
DU-145 = test system: DU-145
HCT-116 = test system: HCT-116
CCRF-CEM = test system: CCRF-CEM
SK-MEL-5 = test system: SK-MEL-5
U-251 = test system: U-251
Hs-578T = test system: Hs-578T
T47D = test system: T47D
NCI-H226 = test system: NCI-H226
EKVX = test system: EKVX
MDA-MB-435 = test system: MDA-MB-435
HOP-92 = test system: HOP-92
HT-29 = test system: HT-29
SK-OV-3 = test system: SK-OV-3
SF-539 = test system: SF-539

For `CCOC(=O)c1ccc(C(=O)n2ccnc2)[nH]1`, the GI50 (MDA-N) was > 100 µM (inactive), the GI50 (Malme-3M) was > 100 µM (inactive) and the GI50 (HOP-62) was > 100 µM (inactive). The GI50 (RXF 393) was 85.7 µM (inactive), the GI50 (HL-60) was > 100 µM (inactive) and the GI50 (HCT-15) was > 100 µM. The GI50 (MOLT-4) was > 100 µM (inactive), the GI50 (SF-295) was > 100 µM (inactive) and the GI50 (K562) was > 100 µM (inactive). The GI50 (TK-10) was > 100 µM (inactive), the GI50 (M14) was > 100 µM (inactive) and the GI50 (SN12C) was > 100 µM (inactive). The GI50 (RPMI-8226) was > 100 µM (inactive), the GI50 (SNB-75) was 63.5 µM (inactive) and the GI50 (SK-MEL-2) was > 100 µM (inactive). The GI50 (SNB-19) was > 100 µM (inactive), the GI50 (COLO 205) was > 100 µM (inactive) and the GI50 (UACC-257) was > 100 µM (inactive). For the same molecule, the GI50 (CAKI-1) was > 100 µM (inactive), the GI50 (BT-549) was > 100 µM (inactive) and the GI50 (UACC-62) was > 100 µM (inactive). The GI50 (A498) was > 100 µM (inactive), the GI50 (786-0) was > 100 µM (inactive) and the GI50 (LOX IMVI) was > 100 µM (inactive). The GI50 (NCI-H522) was > 100 µM (inactive), the GI50 (IGROV-1) was > 100 µM (inactive) and the GI50 (OVCAR-3) was > 100 µM (inactive). The GI50 (SF-268) was > 100 µM (inactive), the GI50 (ACHN) was > 100 µM (inactive) and the GI50 (SR) was > 100 µM (inactive). For the same molecule, the GI50 (OVCAR-8) was > 100 µM (inactive), the GI50 (KM12) was > 100 µM (inactive) and the GI50 (OVCAR-5) was > 100 µM (inactive). The GI50 (SK-MEL-28) was > 100 µM (inactive), the GI50 (SW-620) was > 100 µM (inactive) and the GI50 (MCF7) was > 100 µM (inactive). The GI50 (OVCAR-4) was 84.3 µM (inactive), the GI50 (NCI/ADR-RES) was > 100 µM (inactive) and the GI50 (NCI-H23) was > 100 µM (inactive). The GI50 (UO-31) was > 100 µM (inactive), the GI50 (HCC 2998) was > 100 µM (inactive) and the GI50 (PC-3) was > 100 µM (inactive). For the same molecule, the GI50 (NCI-H460) was > 100 µM (inactive), the GI50 (MDA-MB-231) was > 100 µM (inactive) and the GI50 (A549) was > 100 µM (inactive). For the same molecule, the GI50 (DU-145) was > 100 µM (inactive), the GI50 (HCT-116) was > 100 µM (inactive) and the GI50 (CCRF-CEM) was > 100 µM (inactive). For the same molecule, the GI50 (SK-MEL-5) was > 100 µM (inactive), the GI50 (U-251) was > 100 µM (inactive) and the GI50 (Hs-578T) was > 100 µM (inactive). For the same molecule, the GI50 (T47D) was > 100 µM (inactive), the GI50 (NCI-H226) was > 100 µM (inactive) and the GI50 (EKVX) was > 100 µM (inactive). For the same molecule, the GI50 (MDA-MB-435) was > 100 µM (inactive).

`COc1cc(C)cc(C(=O)/C=C/c2ccccc2)c1O` was tested, and the GI50 (MDA-N) was 23.7 µM (inactive), the GI50 (HOP-62) was 16.7 µM (inactive) and the GI50 (RXF 393) was 16.3 µM (inactive). For the same molecule, the GI50 (HL-60) was 26.4 µM (inactive), the GI50 (HCT-15) was 18.1 µM and the GI50 (MOLT-4) was 30.2 µM (inactive). For the same molecule, the GI50 (SF-295) was 20.9 µM (inactive), the GI50 (HOP-92) was 14.9 µM (inactive) and the GI50 (K562) was 40.6 µM (inactive). For the same molecule, the GI50 (TK-10) was 18.6 µM (inactive), the GI50 (M14) was 16.6 µM (inactive) and the GI50 (SN12C) was 16.9 µM (inactive). For the same molecule, the GI50 (RPMI-8226) was 21.2 µM (inactive), the GI50 (SNB-75) was 24.5 µM (inactive) and the GI50 (SK-MEL-2) was 18.5 µM (inactive). The GI50 (SNB-19) was 16 µM (inactive), the GI50 (COLO 205) was 20 µM (inactive) and the GI50 (UACC-257) was 16.7 µM (inactive). The GI50 (CAKI-1) was 19.5 µM (inactive), the GI50 (BT-549) was 17.4 µM (inactive) and the GI50 (HT-29) was 18.3 µM (inactive). For the same molecule, the GI50 (UACC-62) was 17.1 µM (inactive), the GI50 (A498) was 18.3 µM (inactive) and the GI50 (786-0) was 17.8 µM (inactive). The GI50 (LOX IMVI) was 17.4 µM (inactive), the GI50 (NCI-H522) was 17.9 µM (inactive) and the GI50 (IGROV-1) was 12.6 µM (inactive). For the same molecule, the GI50 (OVCAR-3) was 16.5 µM (inactive), the GI50 (SF-268) was 25.6 µM (inactive) and the GI50 (ACHN) was 18.3 µM (inactive). For the same molecule, the GI50 (SR) was 30.9 µM (inactive), the GI50 (OVCAR-8) was 19.2 µM (inactive) and the GI50 (KM12) was 18.5 µM (inactive). For the same molecule, the GI50 (OVCAR-5) was 13.8 µM (inactive), the GI50 (SK-OV-3) was 29.2 µM (inactive) and the GI50 (SK-MEL-28) was 19.4 µM (inactive). The GI50 (SW-620) was 20.2 µM (inactive), the GI50 (MCF7) was 12.1 µM (inactive) and the GI50 (OVCAR-4) was 20.2 µM (inactive). For the same molecule, the GI50 (NCI/ADR-RES) was 21.4 µM (inactive), the GI50 (NCI-H23) was 16.9 µM (inactive) and the GI50 (UO-31) was 17.8 µM (inactive). The GI50 (HCC 2998) was 18.8 µM (inactive), the GI50 (PC-3) was 19.3 µM (inactive) and the GI50 (NCI-H460) was 20.2 µM (inactive). The GI50 (MDA-MB-231) was 22.5 µM (inactive), the GI50 (A549) was 30.3 µM (inactive) and the GI50 (DU-145) was 14.1 µM (inactive). The GI50 (HCT-116) was 17.7 µM (inactive), the GI50 (CCRF-CEM) was 27.7 µM (inactive) and the GI50 (SK-MEL-5) was 19.8 µM (inactive). For the same molecule, the GI50 (U-251) was 17.2 µM (inactive), the GI50 (Hs-578T) was 32.8 µM (inactive) and the GI50 (T47D) was 11.1 µM (inactive). The GI50 (NCI-H226) was 24.2 µM (inactive), the GI50 (EKVX) was 19.4 µM (inactive) and the GI50 (MDA-MB-435) was 26.9 µM (inactive).

For `COc1cc2ccc1OCc1cccc(n1)COc1ccc(cc1OC)/C=N\c1ccc(cc1)/N=C\2`, the GI50 (MDA-N) was > 100 µM (inactive), the GI50 (Malme-3M) was > 100 µM (inactive) and the GI50 (HOP-62) was > 100 µM (inactive). For the same molecule, the GI50 (RXF 393) was > 100 µM (inactive), the GI50 (HL-60) was > 100 µM (inactive) and the GI50 (HCT-15) was > 100 µM. The GI50 (MOLT-4) was > 100 µM (inactive), the GI50 (SF-295) was > 100 µM (inactive) and the GI50 (HOP-92) was > 100 µM (inactive). The GI50 (K562) was > 100 µM (inactive), the GI50 (TK-10) was > 100 µM (inactive) and the GI50 (M14) was > 100 µM (inactive). For the same molecule, the GI50 (SN12C) was > 100 µM (inactive), the GI50 (SNB-75) was > 100 µM (inactive) and the GI50 (SK-MEL-2) was > 100 µM (inactive). The GI50 (SNB-19) was > 100 µM (inactive), the GI50 (SF-539) was > 100 µM (inactive) and the GI50 (COLO 205) was > 100 µM (inactive). For the same molecule, the GI50 (UACC-257) was > 100 µM (inactive), the GI50 (CAKI-1) was > 100 µM (inactive) and the GI50 (BT-549) was > 100 µM (inactive). For the same molecule, the GI50 (HT-29) was > 100 µM (inactive), the GI50 (UACC-62) was > 100 µM (inactive) and the GI50 (A498) was > 100 µM (inactive). The GI50 (786-0) was > 100 µM (inactive), the GI50 (LOX IMVI) was > 100 µM (inactive) and the GI50 (NCI-H522) was > 100 µM (inactive). The GI50 (IGROV-1) was > 100 µM (inactive), the GI50 (OVCAR-3) was > 100 µM (inactive) and the GI50 (SF-268) was > 100 µM (inactive). For the same molecule, the GI50 (ACHN) was > 100 µM (inactive), the GI50 (SR) was > 100 µM (inactive) and the GI50 (OVCAR-8) was > 100 µM (inactive). For the same molecule, the GI50 (KM12) was > 100 µM (inactive), the GI50 (OVCAR-5) was > 100 µM (inactive) and the GI50 (SK-OV-3) was > 100 µM (inactive). The GI50 (SW-620) was > 100 µM (inactive), the GI50 (MCF7) was > 100 µM (inactive) and the GI50 (OVCAR-4) was > 100 µM (inactive). The GI50 (NCI/ADR-RES) was > 100 µM (inactive), the GI50 (NCI-H23) was > 100 µM (inactive) and the GI50 (UO-31) was > 100 µM (inactive). For the same molecule, the GI50 (HCC 2998) was > 100 µM (inactive), the GI50 (PC-3) was > 100 µM (inactive) and the GI50 (NCI-H460) was > 100 µM (inactive). For the same molecule, the GI50 (MDA-MB-231) was > 100 µM (inactive), the GI50 (A549) was > 100 µM (inactive) and the GI50 (DU-145) was > 100 µM (inactive). The GI50 (HCT-116) was > 100 µM (inactive), the GI50 (CCRF-CEM) was > 100 µM (inactive) and the GI50 (SK-MEL-5) was > 100 µM (inactive). The GI50 (U-251) was > 100 µM (inactive), the GI50 (Hs-578T) was 54.2 µM (inactive) and the GI50 (T47D) was > 100 µM (inactive). For the same molecule, the GI50 (NCI-H226) was > 100 µM (inactive), the GI50 (EKVX) was > 100 µM (inactive) and the GI50 (MDA-MB-435) was > 100 µM (inactive).
